# Publication PMC4430447 (International journal of pharmaceutics, 2014)
# “Also recorded” adds a separate entry of the source. Like-named read-outs stand apart in the source and are kept apart here.
# How the values were obtained:
# human NTCP [1] = molecular target: T1, human NTCP (Homo sapiens, UniProt Q14973); assay: Uptake study on NTCP-HEK293 cells; format: cell-based; settings: for Normalized Jmax: Jmax of compound normalized against Jmax of taurocholate; for Kt: Michaelis-Menten constant of uptake, 5 min, 0-200 μM in HBSS; for NTCP substrate (in words): uptake in presence versus absence of sodium
# T1 sequence (Q14973 1-349): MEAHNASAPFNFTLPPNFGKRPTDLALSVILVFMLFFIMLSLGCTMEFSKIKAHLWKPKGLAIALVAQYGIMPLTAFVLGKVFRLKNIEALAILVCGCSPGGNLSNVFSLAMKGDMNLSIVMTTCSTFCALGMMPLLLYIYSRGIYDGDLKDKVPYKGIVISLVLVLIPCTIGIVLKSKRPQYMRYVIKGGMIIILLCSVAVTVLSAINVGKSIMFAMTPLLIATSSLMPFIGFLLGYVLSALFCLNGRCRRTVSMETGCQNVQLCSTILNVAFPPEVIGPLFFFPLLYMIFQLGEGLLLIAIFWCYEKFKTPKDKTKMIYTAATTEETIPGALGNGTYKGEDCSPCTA
# NTCP-HEK293 cells = assay: Passive uptake in the absence of sodium
# human NTCP [2] = molecular target: T1, human NTCP; assay: Inhibition of taurocholate uptake into NTCP-HEK293 cells; format: cell-based; settings: for Inhibition of NTCP taurocholate uptake (in words): NTCP-HEK293 cells, 0-200 μM
# human NTCP [3] = molecular target: T1, human NTCP; settings: ref Dong et al., 2013, cited from earlier work
# human NTCP [4] = molecular target: T1, human NTCP; assay: Inhibition of irbesartan or losartan uptake by taurocholate in NTCP-HEK293 cells; format: cell-based; settings: substrates irbesartan or losartan
Normalized Jmax (human NTCP [1]),Kt (human NTCP [1]; NTCP-HEK293 cells) [µM],Pp (passive permeability) (NTCP-HEK293 cells) [cm/s ×10^6],SMILES,NTCP substrate (in words) (human NTCP [1]; NTCP-HEK293 cells),also measured
–,–,27.6 ± 1.5,"C[C@H](CCC(=O)O)[C@H]1CC[C@H]2[C@@H]3[C@H](O)C[C@@H]4C[C@H](O)CC[C@]4(C)[C@H]3CC[C@]12C [CDCA, chenodeoxycholate]",indistinguishable uptake in the presence or absence of sodium; also recorded: no NTCP uptake,–
0.233 ± 0.036,11.7 ± 4.3,7.70 ± 0.23,C[C@H](CCC(=O)N[C@@H](CCC(=O)OCc1ccccc1)C(=O)O)[C@H]1CC[C@H]2[C@@H]3[C@H](O)C[C@@H]4C[C@H](O)CC[C@]4(C)[C@H]3CC[C@]12C [CDCA-L-Glu-γ-Benzyl Ester],–,–
0.330 ± 0.031,9.62 ± 1.47,1.47 ± 0.09,CC(C)[C@H](NC(=O)CC[C@@H](C)[C@H]1CC[C@H]2[C@@H]3[C@H](O)C[C@@H]4C[C@H](O)CC[C@]4(C)[C@H]3CC[C@]12C)C(=O)O [CDCA-L-Val-OH],–,–
–,–,–,"C[C@H](CCC(=O)O)[C@H]1CC[C@H]2[C@@H]3C(=O)C[C@@H]4CC(=O)CC[C@]4(C)[C@H]3CC(=O)[C@]12C [DHCA, dehydrocholate]",–,Inhibition of NTCP taurocholate uptake (in words) (human NTCP [2]): not an inhibitor of NTCP
–,–,–,O=C1[C@H](CC[C@H](O)c2ccc(F)cc2)[C@@H](c2ccc(O)cc2)N1c1ccc(F)cc1 [Ezetimibe],not to be NTCP substrates,Previously identified as NTCP inhibitor (in words) (human NTCP [3]): previously identified as NTCP inhibitors
–,–,–,CC(C)OC(=O)C(C)(C)Oc1ccc(C(=O)c2ccc(Cl)cc2)cc1 [Fenofibrate],not to be NTCP substrates,Previously identified as NTCP inhibitor (in words) (human NTCP [3]): previously observed them to be inhibitors
0.508 ± 0.041,15.8 ± 2.7,–,"C[C@H](CCC(=O)NCC(=O)O)[C@H]1CC[C@H]2[C@@H]3[C@H](O)C[C@@H]4C[C@H](O)CC[C@]4(C)[C@H]3C[C@H](O)[C@]12C [GCA, glycocholate]",–,–
–,–,33.9 ± 3.3,"C[C@H](CCC(=O)O)[C@H]1CC[C@H]2[C@@H]3CC[C@@H]4C[C@H](O)CC[C@]4(C)[C@H]3CC[C@]12C [LCA, lithocholate]",indistinguishable uptake in the presence or absence of sodium; also recorded: not an apparent substrate,–
0.621 ± 0.058,8.12 ± 1.20,4.35 ± 0.70,"C[C@H](CCC(=O)NCCS(=O)(=O)O)[C@H]1CC[C@H]2[C@@H]3[C@H](O)C[C@@H]4C[C@H](O)CC[C@]4(C)[C@H]3CC[C@]12C [TCDCA, taurochenodeoxycholate]",–,–
0.495 ± 0.053,6.50 ± 1.87,3.37 ± 0.63,"C[C@H](CCC(=O)NCCS(=O)(=O)O)[C@H]1CC[C@H]2[C@@H]3CC[C@@H]4C[C@H](O)CC[C@]4(C)[C@H]3CC[C@]12C [TLCA, taurolithocholate]",–,–
0.409 ± 0.038,9.53,–,"C[C@H](CCC(=O)NCCS(=O)(=O)O)[C@H]1CC[C@H]2[C@@H]3[C@@H](O)C[C@@H]4C[C@H](O)CC[C@]4(C)[C@H]3CC[C@]12C [TUDCA, tauroursodeoxycholate]",–,–
0.0511 ± 0.0093,1.55,26.3 ± 1.1,"C[C@H](CCC(=O)O)[C@H]1CC[C@H]2[C@@H]3[C@@H](O)C[C@@H]4C[C@H](O)CC[C@]4(C)[C@H]3CC[C@]12C [UDCA, ursodeoxycholate]",substrates,"Normalized Jmax, fold lower than that for taurocholate (human NTCP [1]; versus taurocholate): 14 fold"

SMILES,Normalized Jmax (human NTCP [1]),Kt (human NTCP [1]; NTCP-HEK293 cells) [µM],Pp (passive permeability) (NTCP-HEK293 cells) [cm/s ×10^6],NTCP substrate (in words) (human NTCP [1]; NTCP-HEK293 cells),also measured
"C[C@H](CCC(=O)O)[C@H]1CC[C@H]2[C@@H]3[C@H](O)C[C@@H]4C[C@H](O)CC[C@]4(C)[C@H]3C[C@H](O)[C@]12C [CA, cholate]",0.523 ± 0.081,54.9,4.56 ± 0.06,substrates,–
"C[C@H](CCC(=O)NCC(=O)O)[C@H]1CC[C@H]2[C@@H]3[C@H](O)C[C@@H]4C[C@H](O)CC[C@]4(C)[C@H]3CC[C@]12C [GCDCA, glycochenodeoxycholate]",0.726 ± 0.091,10.9 ± 1.8,2.17 ± 0.32,–,–
"C[C@H](CCC(=O)NCC(=O)O)[C@H]1CC[C@H]2[C@@H]3CC[C@@H]4C[C@H](O)CC[C@]4(C)[C@H]3CC[C@]12C [GLCA, glycolithocholate]",0.384 ± 0.070,4.87 ± 3.49,6.67 ± 0.95,–,Ki (human NTCP [2]): ~5 µM; Ki (human NTCP [2]; listed as Lithocholate Glycine): 7.29 µM
"C[C@H](CCC(=O)NCC(=O)O)[C@H]1CC[C@H]2[C@@H]3[C@@H](O)C[C@@H]4C[C@H](O)CC[C@]4(C)[C@H]3CC[C@]12C [GUDCA, glycoursodeoxycholate]",0.460 ± 0.143,–,–,–,Ki (human NTCP [2]): 15 µM; Inhibition of NTCP taurocholate uptake (in words) (human NTCP [2]): reduced by GUDCA in a concentration-dependent manner
CCCCC1=NC2(CCCC2)C(=O)N1Cc1ccc(-c2ccccc2-c2nnn[nH]2)cc1 [Irbesartan],0.172 ± 0.022,32.7 ± 5.9,6.27 ± 0.14,substrates of human NTCP,"Jmax (human NTCP [1]; maximal flux, NTCP-HEK293 cells): 0.430 ± 0.026 pmol/sec/cm^2; Jmax relative to taurocholate Jmax (human NTCP [1]; versus taurocholate Jmax): about 20%; Previously identified as NTCP inhibitor (in words) (human NTCP [3]): previously identified as NTCP inhibitors"
CCCCc1nc(Cl)c(CO)n1Cc1ccc(-c2ccccc2-c2nn[nH]n2)cc1 [Losartan],–,–,1.48 ± 0.12,–,–
CC(C)c1nc(N(C)S(C)(=O)=O)nc(-c2ccc(F)cc2)c1/C=C/[C@@H](O)C[C@@H](O)CC(=O)O [Rosuvastatin],–,–,0.330 ± 0.006,–,–
"C[C@H](CCC(=O)NCCS(=O)(=O)O)[C@H]1CC[C@H]2[C@@H]3[C@H](O)C[C@@H]4C[C@H](O)CC[C@]4(C)[C@H]3C[C@H](O)[C@]12C [TCA, taurocholate]",0.708 ± 0.057,19.8 ± 2.5,–,–,Kt (NTCP taurocholate Michaelis-Menten constant) (human NTCP [3]; used in Equation 1): 22.7(+3.4) μM; Inhibition of irbesartan and losartan uptake (in words) (human NTCP [4]): inhibited irbesartan and losartan uptake in a concentration dependent fashion
